From patent publication US7638518B2, “Substituted pyrazole kinase inhibitors” (Janssen Pharmaceutica, priority 2006, dated 2009)

Key:
VEGFR2 = target: T1, VEGFR2 (Rattus norvegicus, UniProt O08775); assay: VEGFR2 kinase screening assay (33P-ATP FlashPlate); assay type: biochemical; conditions: 10 μM ATP, rat VEGF-R2 kinase domain, 1 hr at 30° C.
T1 construct: polyhistidine (N)

CDK1 = target: T2, CDK1 (Homo sapiens, UniProt P06493); assay: CDK-1 kinase screening assay (33P-ATP FlashPlate); assay type: biochemical; conditions: 10 μM ATP, biotinylated histone-H1 peptide substrate, 1 hr at 30° C.
T2 construct: purchased New England Biolabs, Beverly, Mass; 6020; host or cells: insect cells
Description: (§1) A kinase reaction mixture was prepared containing 50 mM Tris-HCl pH=8, 10 mM MgCl2, 0.1 mM […], 1 mM DTT, 10 μM ATP, 0.025 μM biotinylated histone-H1 peptide substrate and 0.2 μCuries per well ^33P-γ-ATP (2000-3000 Ci/mmol). 70 μL of the kinase reaction mixture was dispensed into the well of a streptavidin coated FlashPlate™ (Cat. # SMP103, NEN, Boston, Mass.).
(§2) Test compound stock in 100% DMSO (1 μL) was added to the wells resulting in a final concentration of 1% DMSO in the reaction with a 100 μL final reaction volume. Each enzyme was diluted in 50 mM Tris-HCl pH=8.0, 0.1% BSA and 30 μL was added to each well to initiate the reaction. The reaction was incubated for one hour at 30° C. At the end of the 1 hr incubation, the reaction was terminated by aspirating the mixture from the plate and washing the wells twice with PBS containing 100 mM EDTA. The biotinylated peptide substrate became immobilized on the Flashplate™ and the incorporation of ^33P-γ-ATP was measured by reading the plate on a scintillation counter. Inhibition of the enzymatic activity was measured by observing a reduced amount of ^33P-γ-ATP incorporated into the immobilized peptide.
The CDK1 enzyme was isolated from insect cells expressing both the human CDK1 catalytic subunit (Accession number NM_001786) and its positive regulatory subunit cyclin B (New England Biolabs, Beverly, Mass.; Cat. # 6020). The assay used 30 ng of the N-terminal biotinylated peptide biotin-[…]-amide (Cyclin dependent kinase 1) per well.
(§3) Aurora-A is a fusion protein containing a polyhistidine tag at the N terminus followed by the full length protein encoding the murine Aurora-A (Accession number GB BC014711) expressed and purified from sf9 insect cells. The assay used 400 ng of the N-terminal biotinylated peptide biotin-[…]-amide (Aurora-A) per well. A maximum and minimum signal for the assay was determined on each plate. The percent inhibition of a test compound was calculated according to the formula: […]
(§4) For a series of test concentrations, the IC50 was derived by graphing percent inhibition against the log of the concentrations tested for a given compound with results shown in Table 1.

Aurora-A = target: T3, Aurora-A (Mus musculus, UniProt P97477); assay: Aurora-A kinase screening assay (33P-ATP FlashPlate); assay type: biochemical; conditions: 10 μM ATP, murine full length Aurora-A, 1 hr at 30° C.
T3 construct: followed by the full length protein encoding the murine Aurora-A; polyhistidine (N); made in house; host or cells: sf9 insect cells
T3 sequence (P97477 1-395): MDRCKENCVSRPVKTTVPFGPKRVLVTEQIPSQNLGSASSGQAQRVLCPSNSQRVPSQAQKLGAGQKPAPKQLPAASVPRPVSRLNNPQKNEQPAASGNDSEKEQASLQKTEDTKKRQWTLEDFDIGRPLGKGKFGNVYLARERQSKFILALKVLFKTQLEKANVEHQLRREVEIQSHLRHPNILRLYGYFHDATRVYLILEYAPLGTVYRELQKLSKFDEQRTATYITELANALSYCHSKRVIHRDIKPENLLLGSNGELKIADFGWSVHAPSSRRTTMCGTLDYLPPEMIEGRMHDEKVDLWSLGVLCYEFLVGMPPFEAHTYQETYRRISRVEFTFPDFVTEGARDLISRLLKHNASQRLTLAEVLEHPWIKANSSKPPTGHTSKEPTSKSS

HER2 = target: T4, HER2 (Homo sapiens, UniProt P04626); assay: HER2 kinase screening assay (33P-ATP FlashPlate); assay type: biochemical; conditions: 10 μM ATP, biotin-poly(GT) 4:1 substrate, 1 hr at 30° C.
T4 construct: GST (Glutathione-S-Transferase) (N); HIS6 (N); Thrombin cleavage site (N); purchased Proqinase, Freiburg, Germany
Description: as §1, §2
The HER2 construct consisted of a fusion of GST (Glutathione-S-Transferase), HIS6 Thrombin and the nucleotides encoding amino acids 679 to 1255 of HER-2 (Accession number M11730) (Proqinase, Freiburg, Germany). The assay used 200 ng of the N-terminal biotinylated peptide biotin-poly(GT) 4:1 (HER2) per well.
as §3, §4

HCT-116 colon carcinoma = assay: Cell proliferation inhibition assay (14C-thymidine incorporation), HCT-116; assay type: cell-based; conditions: Homo sapiens, HCT-116 cells
Text: (§5) The ability of a test compound to inhibit unregulated cell proliferation may be determined by measuring incorporation of ^14C-labelled thymidine into newly synthesized DNA within cell lines derived from carcinomas originating from several tissues. Accordingly, the anti-proliferative effect of a compound on cells with a variety of phenotypes may be determined.
(§6) Carcinoma cell lines include those such as HeLa cervical adenocarcinoma (American Type Culture Collection (ATCC), Virginia, Cat. #CCL-2), A375 malignant melanoma (ATCC CRL-1619), and HCT-116 colon carcinoma (CCL-247).
(§7) The carcinoma cells are trypsinized and counted. The cells (3000-8000 count) are added to each well of a 96-well CytoStar tissue culture treated scintillating microplate (Amersham #RPNQ0160) in complete medium (100 μL) and the plate is then incubated in complete medium for 24 hrs at 37° C. in an inert atmosphere containing 5% CO2. Test compound (1 μL) in 100% DMSO is added to the plate test-wells with DMSO only added to control-wells. The plate is incubated in complete medium for a second 24 hr period at 37° C. in an atmosphere containing 5% CO2.
(§8) An aliquot of a solution of Methyl ^14C-thymidine (56 mC/mmol) (NEN #NEC568 or Amersham #CFA532) and complete medium (20 uL to provide 0.2 μCi/well) is then added to each well and the plate is incubated for a third 24 hr period at 37° C. in an atmosphere containing 5% CO2. The plate contents are then discarded, the plate is washed twice with PBS (200 μL) and then PBS (200 μL) is added to each well. The plate is sealed and the degree of methyl ^14C-thymidine incorporation is quantified on a Packard Top Count.
(§9) A maximum and minimum signal for the assay was determined on each plate. The percent inhibition of a test compound was calculated according to the formula: […]
(§10) For a series of test concentrations, the IC50 was derived by graphing percent inhibition against the log of the concentrations tested for a given compound with results shown in Table 3.

A375 malignant melanoma = assay: Cell proliferation inhibition assay (14C-thymidine incorporation), A375; assay type: cell-based; conditions: Homo sapiens, A-375, A375 cells
Text: as §5, §6, §7, §8, §9, §10

[1] = tested on: HeLa cervical adenocarcinoma; assay: Cell proliferation inhibition assay (14C-thymidine incorporation), HeLa; assay type: cell-based; conditions: Homo sapiens, HeLa cells
Text: as §5, §6, §7, §8, §9, §10

T1 sequence (O08775 786-1343): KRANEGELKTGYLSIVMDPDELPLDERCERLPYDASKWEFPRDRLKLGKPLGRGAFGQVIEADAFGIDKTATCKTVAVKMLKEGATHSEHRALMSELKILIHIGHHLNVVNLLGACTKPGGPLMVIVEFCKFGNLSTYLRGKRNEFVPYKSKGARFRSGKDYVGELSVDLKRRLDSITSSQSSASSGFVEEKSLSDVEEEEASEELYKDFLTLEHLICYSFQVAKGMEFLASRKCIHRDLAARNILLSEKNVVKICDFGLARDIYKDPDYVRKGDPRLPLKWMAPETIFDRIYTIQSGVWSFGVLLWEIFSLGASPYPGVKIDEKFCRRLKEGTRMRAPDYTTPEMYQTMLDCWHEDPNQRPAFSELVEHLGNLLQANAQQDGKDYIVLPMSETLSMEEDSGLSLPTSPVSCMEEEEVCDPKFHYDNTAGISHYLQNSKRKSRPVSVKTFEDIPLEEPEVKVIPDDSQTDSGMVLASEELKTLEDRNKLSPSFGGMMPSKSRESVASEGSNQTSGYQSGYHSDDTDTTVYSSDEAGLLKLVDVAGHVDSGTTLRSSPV
T4 sequence (P04626 679-1255): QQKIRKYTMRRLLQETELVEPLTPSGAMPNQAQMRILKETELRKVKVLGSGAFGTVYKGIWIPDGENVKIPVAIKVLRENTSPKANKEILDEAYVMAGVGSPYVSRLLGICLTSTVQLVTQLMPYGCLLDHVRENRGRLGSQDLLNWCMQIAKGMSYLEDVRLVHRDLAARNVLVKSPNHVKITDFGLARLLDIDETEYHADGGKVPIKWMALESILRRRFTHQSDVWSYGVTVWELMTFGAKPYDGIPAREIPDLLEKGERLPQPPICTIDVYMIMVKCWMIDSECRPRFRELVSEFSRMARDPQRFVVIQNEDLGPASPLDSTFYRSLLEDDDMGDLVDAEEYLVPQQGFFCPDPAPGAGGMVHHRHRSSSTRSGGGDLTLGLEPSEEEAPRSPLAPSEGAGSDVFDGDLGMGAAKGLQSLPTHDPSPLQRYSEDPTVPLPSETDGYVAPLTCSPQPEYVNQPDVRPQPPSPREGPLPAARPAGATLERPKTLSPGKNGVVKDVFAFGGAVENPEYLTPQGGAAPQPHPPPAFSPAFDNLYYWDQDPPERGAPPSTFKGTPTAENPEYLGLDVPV
T2 sequence (P06493 whole entry): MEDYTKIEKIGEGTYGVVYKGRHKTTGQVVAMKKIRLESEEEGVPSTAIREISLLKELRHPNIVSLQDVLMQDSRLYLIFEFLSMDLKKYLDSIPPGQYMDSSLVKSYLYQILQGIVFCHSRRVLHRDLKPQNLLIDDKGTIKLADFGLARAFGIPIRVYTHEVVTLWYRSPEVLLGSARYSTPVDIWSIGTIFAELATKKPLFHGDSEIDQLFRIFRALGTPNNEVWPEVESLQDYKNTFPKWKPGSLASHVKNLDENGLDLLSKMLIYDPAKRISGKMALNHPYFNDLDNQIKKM
T2 sequence (P14635 whole entry partner): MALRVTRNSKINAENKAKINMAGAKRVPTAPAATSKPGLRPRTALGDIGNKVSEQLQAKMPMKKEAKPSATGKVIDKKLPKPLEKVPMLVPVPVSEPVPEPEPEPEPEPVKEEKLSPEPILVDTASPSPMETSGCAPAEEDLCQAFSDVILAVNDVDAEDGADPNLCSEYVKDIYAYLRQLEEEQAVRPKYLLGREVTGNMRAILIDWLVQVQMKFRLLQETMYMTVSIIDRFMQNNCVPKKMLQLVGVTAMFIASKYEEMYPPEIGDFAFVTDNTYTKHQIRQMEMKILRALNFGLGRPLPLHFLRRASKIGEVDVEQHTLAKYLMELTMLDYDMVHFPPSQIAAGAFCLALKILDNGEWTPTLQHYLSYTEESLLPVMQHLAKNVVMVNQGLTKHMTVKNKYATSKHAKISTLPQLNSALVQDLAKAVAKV

| IC50 (VEGFR2) [nM] | IC50 (CDK1) [nM] | IC50 (Aurora-A) [nM] | IC50 (HER2) [µM] | IC50 (HCT-116 colon carcinoma) [nM] | IC50 (A375 malignant melanoma) [nM] | IC50 [1] [nM] | Compound |
| --- | --- | --- | --- | --- | --- | --- | --- |
| 821 | 4.59 | 588 | 3.03 | 187 | 553 | 615 | CCNCc1cncc(C=Cc2c[nH]nc2-c2nc3ccc(OC)cc3[nH]2)c1 [Cpd 1, ethyl-(5-{2-[3-(6-methoxy-1H-benzoimidazol-2-yl)-1H-pyrazol-4-yl]-vinyl}-pyridin-3-ylmethyl)-amine] |
| 967 | 32.8 | 513 | – | 2160 | 2500 | 1800 | COc1ccc2nc(-c3n[nH]cc3C=Cc3cccnc3)[nH]c2c1 [Cpd 2, 6-methoxy-2-[4-(2-pyridin-3-yl-vinyl)-1H-pyrazol-3-yl]-1H-benzoimidazole] |
| 636 | 23 | 625 | 6.84 | 1040 | 1030 | 992 | COc1ccc2nc(-c3n[nH]cc3C=Cc3ccc(N)nc3)[nH]c2c1 [Cpd 3, 5-{2-[3-(6-Methoxy-1H-benzoimidazol-2-yl)-1H-pyrazol-4-yl]-vinyl}-pyridin-2-ylamine] |
| – | 157 | 549 | – | 3190 | 4300 | 2760 | COc1ccc2nc(-c3n[nH]cc3C=Cc3cnccc3C)[nH]c2c1 [Cpd 5, 6-methoxy-2-{4-[2-(4-methyl-pyridin-3-yl)-vinyl]-1H-pyrazol-3-yl}-1H-benzoimidazole] |
| 613 | 148 | – | – | 2680 | 2960 | 2820 | COc1ccc2nc(-c3n[nH]cc3C=Cc3cncc4ccccc34)[nH]c2c1 [Cpd 6, 4-{2-[3-(6-methoxy-1H-benzoimidazol-2-yl)-1H-pyrazol-4-yl]-vinyl}-isoquinoline] |
| 1730 | > 1000 | 4190 | – | – | – | – | COc1ccc2nc(-c3n[nH]cc3C=Cc3cncc(C#N)c3)[nH]c2c1 [Cpd 7, 5-{2-[3-(6-methoxy-1H-benzoimidazol-2-yl)-1H-pyrazol-4-yl]-vinyl}-nicotinonitrile] |
| 286 | 29.1 | > 10000 | 9.32 | 194 | 864 | 464 | CN1CCN(c2ccc3nc(-c4n[nH]cc4C=Cc4cccnc4)[nH]c3c2)CC1 [Cpd 8, 6-(4-methyl-piperazin-1-yl)-2-[4-(2-pyridin-3-yl-vinyl)-1H-pyrazol-3-yl]-1H-benzoimidazole] |
| 1280 | 886 | > 100000 | – | 3130 | 3100 | 4370 | COC(=O)c1cncc(C=Cc2c[nH]nc2-c2nc3ccc(OC)cc3[nH]2)c1 [Cpd 9, 5-{2-[3-(6-methoxy-1H-benzoimidazol-2-yl)-1H-pyrazol-4-yl]-vinyl}-nicotinic acid methyl ester] |
| 653 | 46.6 | 399 | 12 | 748 | 913 | 886 | COc1cncc(C=Cc2c[nH]nc2-c2nc3ccc(OC)cc3[nH]2)c1 [Cpd 10, 6-methoxy-2-{4-[2-(5-methoxy-pyridin-3-yl)-vinyl]-1H-pyrazol-3-yl}-1H-benzoimidazole] |
| 1350 | 111 | > 100000 | 36.6 | 2460 | 3620 | 3700 | CCNC(=O)c1cncc(C=Cc2c[nH]nc2-c2nc3ccc(OC)cc3[nH]2)c1 [Cpd 11, N-ethyl-5-{2-[3-(6-methoxy-1H-benzoimidazol-2-yl)-1H-pyrazol-4-yl]-vinyl}-nicotinamide] |
